For 26 compounds, EC50 results are on record in patent US20260356841A1, “HETEROCYCLIC PYRIDINONE COMPOUNDS AS TRIGGERING RECEPTOR EXPRESSED ON MYELOID CELLS 2 AGONISTS AND METHODS OF USE” (Vigil Neuroscience, Inc., priority 2023, published 2026).

A value given as a limit tells only on which side of the number the result lay.

This experiment concerns the target T1, human TREM2 (Homo sapiens, UniProt Q9NZC2).
T1 construct: expressed in transfected cells; host or cells: HEK293T (HEK293T-hTREM2 cells)
Briefly: TREM2 agonist potency by cellular phosphorylation of Spleen Tyrosine Kinase (Syk), AlphaLisa, HEK293T-hTREM2 cells. The format is cell-based. To be noted: hTREM2 EC50 Data (HEK293 Cells); Syk phosphorylation, AlphaLisa; read-out: hTREM2 EC50. In a few lines:
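HEK293T cells co-expressing human TREM2 and DAP12, plated 20–24 h before use. Compounds applied 45 min at room temperature in assay buffer, then cells lysed and phospho-Syk quantified by AlphaLisa. Percent activation from a standard curve; EC50 from a four-parameter variable-slope fit.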
On the technique in general: In Alpha technology, singlet oxygen from a donor bead excites a nearby acceptor bead.

As a reminder, the EC50 is the concentration that produces a half-maximal response.

T1 sequence (Q9NZC2 19-230): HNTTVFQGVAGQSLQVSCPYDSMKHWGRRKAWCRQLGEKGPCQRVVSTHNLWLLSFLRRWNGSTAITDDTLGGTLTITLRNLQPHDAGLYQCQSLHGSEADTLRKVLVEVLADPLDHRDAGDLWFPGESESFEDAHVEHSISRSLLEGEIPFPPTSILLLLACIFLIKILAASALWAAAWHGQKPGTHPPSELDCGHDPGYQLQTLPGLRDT
T1 sequence (O43914 22-113 partner): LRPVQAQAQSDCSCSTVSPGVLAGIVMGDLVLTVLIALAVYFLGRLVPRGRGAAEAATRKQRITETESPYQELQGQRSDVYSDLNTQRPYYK

On to `Cc1nc2nc([C@H]3CCO[C@@H](c4ccc(=O)n(CC5(C)CC5)c4)C3)nc(C34CC(C(F)(F)F)(C3)C4)c2nc1C` [Example 100, 5-[(2R,4S)-4-[6,7-dimethyl-4-[3-(trifluoromethyl)-1-bicyclo[1.1.1]pentanyl]pteridin-2-yl]tetrahydropyran-2-yl]-1-[(1-methylcyclopropyl)methyl]pyridin-2-one], for which the EC50 is less than 100 nM.

Turning to `Cc1nc2c(C34CC(C(F)(F)F)(C3)C4)nc([C@H]3CCO[C@@H](c4ccc(=O)n(N)c4)C3)nc2c(=O)n1C` (racemic) [Example 218, 2,3-dimethyl-6-[rac-(2R,4S)-2-(1-amino-6-oxo-3-pyridyl)tetrahydropyran-4-yl]-8-[3-(trifluoromethyl)-1-bicyclo[1.1.1]pentanyl]pyrimido[5,4-d]pyrimidin-4-one], the EC50 is 100 to 500 nM.

For `[2H]C([2H])([2H])c1nc2nc([C@H]3CCO[C@@H](c4ccc(=O)n(C5CC5)c4)C3)nc(C34CC(C(F)(F)F)(C3)C4)c2nc1C([2H])([2H])[2H]` [Example 201, 5-((2R,4S)-4-(6,7-bis(methyl-d3)-4-(3-(trifluoromethyl)bicyclo[1.1.1]pentan-1-yl)pteridin-2-yl)tetrahydro-2H-pyran-2-yl)-1-cyclopropylpyridin-2 (1H)-one], the EC50 is less than 100 nM.

As for `Cc1nc2nc([C@H]3CCO[C@@H](c4ccc(=O)n(C56CC(C5)C6)c4)C3)nc(C34CC(C(F)(F)F)(C3)C4)c2nc1C` [Example 120, 1-(1-bicyclo[1.1.1]pentanyl)-5-[(2R,4S)-4-[6,7-dimethyl-4-[3-(trifluoromethyl)-1-bicyclo-[1.1.1]pentanyl]pteridin-2-yl]tetrahydropyran-2-yl]pyridin-2-one], the EC50 is less than 100 nM.

In the case of `Cc1nc2nc([C@H]3CCO[C@@H](c4ccc(=O)n(C)c4)C3)nc(-c3ccc(C(F)(F)F)c(F)c3F)c2nc1C` [Example 18, 5-[(2R,4S)-4-[4-[2,3-difluoro-4-(trifluoromethyl)-phenyl]-6,7-dimethyl-pteridin-2-yl]tetrahydropyran-2-yl]-1-methyl-pyridin-2-one], the EC50 was 100 to 500 nM.

Consider `COc1nc2c(C34CC(C(F)(F)F)(C3)C4)nc([C@H]3CCO[C@@H](c4ccc(=O)n(CC#N)c4)C3)nc2nc1C` [Example 145, 2-[5-[(2R,4S)-4-[6-methoxy-7-methyl-4-[3-(trifluoromethyl)-1-bicyclo-[1.1.1]pentanyl]pteridin-2-yl]tetrahydropyran-2-yl]-2-oxo-1-pyridyl]acetonitrile], for which the EC50 is less than 100 nM.

In the case of `Cc1nc2nc([C@H]3CCO[C@@H](c4ccc(=O)n(C)c4)C3)nc(-c3ccc(C(F)(F)F)cc3F)c2nc1C(F)F` [Example 126, 5-[(2R,4S)-4-[6-(difluoromethyl)-4-[2-fluoro-4-(trifluoromethyl)phenyl]-7-methyl-pteridin-2-yl]tetrahydropyran-2-yl]-1-methyl-pyridin-2-one], the EC50 lay in the range of 100 to 500 nM.

Consider `Cc1nc2nc([C@H]3CCO[C@@H](c4ccc(=O)n(N(C)C)c4)C3)nc(C34CC(C(F)(F)F)(C3)C4)c2nc1C` [Example 178, 1-(dimethylamino)-5-[(2R,4S)-4-[6,7-dimethyl-4-[3-(trifluoromethyl)-1-bicyclo[1.1.1]pentanyl]pteridin-2-yl]tetrahydropyran-2-yl]pyridin-2-one], for which the EC50 is less than 100 nM.

On to `Cc1cnc2nc([C@H]3CCO[C@@H](c4ccc(=O)[nH]c4)C3)nc(C34CC(C(F)(F)F)(C3)C4)c2n1` [Example 197, 5-((2R,4S)-4-(6-methyl-4-(3-(trifluoromethyl)bicyclo[1.1.1]pentan-1-yl)pteridin-2-yl)tetrahydro-2H-pyran-2-yl)pyridin-2(1H)-one], for which the EC50 was in the range of 100 to 500 nM.

Turning to `CC(C)=Nn1cc([C@H]2C[C@@H](c3nc(C45CC(C(F)(F)F)(C4)C5)c4cc(C(F)(F)F)c(C)nc4n3)CCO2)ccc1=O` [Example 208, 5-((2R,4S)-4-(7-methyl-6-(trifluoromethyl)-4-(3-(trifluoromethyl)bicyclo[1.1.1]pentan-1-yl)pyrido[2,3-d]pyrimidin-2-yl)tetrahydro-2H-pyran-2-yl)-1-(propan-2-ylideneamino)pyridin-2 (1H)-one], the EC50 was less than 100 nM.

With `Cc1nc2nc([C@@H]3CCO[C@@H](c4ccc(=O)n(C)c4)C3)nc(-c3ccc(Cl)cc3F)c2nc1C` (racemic) [Example 9, 1-methyl-5-[rac-(2R,4R)-4-[4-(4-chloro-2-fluoro-phenyl)-6,7-dimethyl-pteridin-2-yl]tetrahydropyran-2-yl]pyridin-2-one], the EC50 is less than 100 nM.

In the case of `[2H]C([2H])([2H])c1nc2nc(C3CCOC(c4ccc(=O)n(C([2H])([2H])[2H])c4)C3)nc(C34CC(C(F)(F)F)(C3)C4)c2nc1C([2H])([2H])[2H]` (centres unmarked) [Example 353], the EC50 is less than 100 nM.

With `CCn1cc([C@H]2C[C@@H](c3nc(C45CC(C(F)(F)F)(C4)C5)c4nc(C)c(C)nc4n3)CCO2)ccc1=O` [Example 80, 5-[(2R,4S)-4-[6,7-dimethyl-4-[3-(trifluoromethyl)-1-bicyclo[1.1.1]pentanyl]pteridin-2-yl]tetrahydropyran-2-yl]-1-ethyl-pyridin-2-one], the EC50 was less than 100 nM.

Regarding `Cc1nc2cc(C3CCO[C@@H](c4ccc(=O)n(C)c4)C3)nc(-c3ccc(F)cc3F)c2nc1C` (some centres unmarked) [Example 194, 5-(4-(5-(2,4-difluorophenyl)-2,3-dimethylpyrido[3,4-b]pyrazin-7-yl)tetrahydro-2H-pyran-2-yl)-1-methylpyridin-2 (1H)-one], the EC50 lay within 100 to 500 nM.

Consider `Cc1nc2nc([C@H]3CCO[C@@H](c4ccc(=O)n(C)c4)C3)nc(C34CC(CC(F)F)(C3)C4)c2nc1C` [Example 46, 5-[(2R,4S)-4-[4-[3-(2,2-difluoroethyl)-1-bicyclo[1.1.1]pentanyl]-6,7-dimethyl-pteridin-2-yl]tetrahydropyran-2-yl]-1-methyl-pyridin-2-one], for which the EC50 is less than 100 nM.

Turning to `CNn1cc([C@H]2C[C@@H](c3nc(C45CC(C(F)(F)F)(C4)C5)c4nc(C)c(C)nc4n3)CCO2)ccc1=O` [Example 179, 5-[(2R,4S)-4-[6,7-dimethyl-4-[3-(trifluoromethyl)-1-bicyclo[1.1.1]pentanyl]pteridin-2-yl]tetrahydropyran-2-yl]-1-(methylamino)pyridin-2-one], the EC50 is less than 100 nM.

For the compound `Cc1nc2nc([C@@H]3CCO[C@@H](c4ccc(=O)n(C)c4)C3)nc(-c3cc(F)c(C(F)(F)F)cc3F)c2nc1C` [Example 348], the EC50 is greater than 500 nM.

Take `Cc1nc2cc(N3C[C@@H](C)O[C@@H](c4ccc(=O)[nH]c4)C3)nc(-c3ccc(F)cc3F)c2nc1C` [Example 186, 5-((2S,6R)-4-(5-(2,4-difluorophenyl)-2,3-dimethylpyrido[3,4-b]pyrazin-7-yl)-6-methylmorpholin-2-yl)pyridin-2(1H)-one]: the EC50 is 100 to 500 nM.

For `Cc1nc2nc([C@H]3CCO[C@@H](c4ccc(=O)n(C5COC5)c4)C3)nc(C34CC(C(F)(F)F)(C3)C4)c2nc1C` [Example 107, 5-[(2R,4S)-4-[6,7-dimethyl-4-[3-(trifluoromethyl)-1-bicyclo[1.1.1]pentanyl]pteridin-2-yl]tetrahydropyran-2-yl]-1-(oxetan-3-yl)pyridin-2-one], the EC50 was less than 100 nM.

Regarding `CNn1cc([C@H]2C[C@@H](c3nc(C45CC(C(F)(F)F)(C4)C5)c4cc(C(F)(F)F)c(C)nc4n3)CCO2)ccc1=O` [Example 338, 1-(methylamino)-5-((2R,4S)-4-(7-methyl-6-(trifluoromethyl)-4-(3-(trifluoromethyl)bicyclo-[1.1.1]pentan-1-yl)pyrido[2,3-d]pyrimidin-2-yl)tetrahydro-2H-pyran-2-yl)pyridin-2 (1H)-one], the EC50 was less than 100 nM.

As for `Cc1nc2c(C34CC(C(F)(F)F)(C3)C4)nc([C@H]3CCO[C@@H](c4ccc(=O)n(C)c4)C3)nc2c(=O)n1C` (racemic) [Example 217, 2,3-dimethyl-6-[rac-(2R,4S)-2-(1-methyl-6-oxo-3-pyridyl)tetrahydropyran-4-yl]-8-[3-(trifluoromethyl)-1-bicyclo[1.1.1]pentanyl]pyrimido[5,4-d]pyrimidin-4-one], the EC50 was less than 100 nM.

Regarding `Cc1cc2c(-c3ccc(F)cc3F)nc(N3C[C@@H](C)O[C@@H](c4ccc(=O)n(N)c4)C3)cc2nc1C` [Example 193, 1-amino-5-[(2S,6R)-4-[5-(2,4-difluorophenyl)-2,3-dimethyl-1,6-naphthyridin-7-yl]-6-methyl-morpholin-2-yl]pyridin-2-one], the EC50 is less than 100 nM.

With `Cc1nc2nc([C@H]3C[C@@H](C)O[C@@H](c4ccc(=O)n(C5CC5)c4)C3)nc(C34CC(C(F)(F)F)(C3)C4)c2nc1C` [Example 102, 1-cyclopropyl-5-[(2R,4S,6R)-4-[6,7-dimethyl-4-[3-(trifluoromethyl)-1-bicyclo[1.1.1]pentanyl]pteridin-2-yl]-6-methyl-tetrahydropyran-2-yl]pyridin-2-one], the EC50 was less than 100 nM.

As for `CN(C)c1nc2nc([C@H]3CCO[C@@H](c4ccc(=O)n(C)c4)C3)nc(-c3ccc(F)cc3F)c2s1` [Example 13, 5-[(2R,4S)-4-[7-(2,4-difluorophenyl)-2-(dimethylamino)thiazolo[4,5-d]pyrimidin-5-yl]tetrahydropyran-2-yl]-1-methyl-pyridin-2-one], the EC50 was in the range of 100 to 500 nM.

In the case of `Cc1nc2nc([C@@H]3CCO[C@@H](c4ccc(=O)n(C5CC5)c4)C3)nc(-c3ccc(C(F)(F)F)cc3F)c2nc1C` [Example 66, 1-cyclopropyl-5-[(2R,4R)-4-[4-[2-fluoro-4-(trifluoromethyl)phenyl]-6,7-dimethyl-pteridin-2-yl]tetrahydropyran-2-yl]pyridin-2-one], the EC50 was less than 100 nM.

Consider `Cc1nc2nc([C@@H]3CCO[C@@H](c4ccc(=O)n(C)c4)C3)cc(C34CC(C(F)(F)F)(C3)C4)c2nc1C` [Example 169, 1-methyl-5-[(2R,4R)-4-[2,3-dimethyl-8-[3-(trifluoromethyl)-1-bicyclo-[1.1.1]pentanyl]pyrido[2,3-b]pyrazin-6-yl]tetrahydropyran-2-yl]pyridin-2-one], for which the EC50 was less than 100 nM.
